According to US3998818A, “Trifluoroethylmercapto, -sulfinyl or -sulfonyl acetamidocephalosporins” (SmithKline Corporation, priority 1975, dated 1976):
≈ marks a conversion by molar mass, not a printed value.

Columns and labels:
Type in all cases: cell-based
[1] = system: S. aureus HH 127; assay: MIC by standard agar inclusion method (S. aureus HH 127); conditions: Staphylococcus aureus, HH127
[2] = system: S. aureus SK 23390; assay: MIC by standard agar inclusion method (S. aureus SK 23390); conditions: Staphylococcus aureus, SK23390
[3] = system: S. aureus Villaluz; assay: MIC by standard agar inclusion method (S. aureus Villaluz); conditions: Staphylococcus aureus
[4] = system: Strep. faecalis HH 34358; assay: MIC by standard agar inclusion method (Strep. faecalis HH 34358); conditions: Enterococcus faecalis, HH34358
[5] = system: E. coli SK 12140; assay: MIC by standard agar inclusion method (E. coli SK 12140); conditions: Escherichia coli, SK12140
[6] = system: E. coli HH 33779; assay: MIC by standard agar inclusion method (E. coli HH 33779); conditions: Escherichia coli, HH33779
[7] = system: Kleb. pneumo. SK 4200; assay: MIC by standard agar inclusion method (Kleb. pneumo. SK 4200)
[8] = system: Kleb. pneumo. SK 1200; assay: MIC by standard agar inclusion method (Kleb. pneumo. SK 1200)
[9] = system: Salmonella ATCC 12176; assay: MIC by standard agar inclusion method (Salmonella ATCC 12176); conditions: ATCC12176
[10] = system: Shigella paradysentiae; assay: MIC by standard agar inclusion method (Shigella paradysentiae)
[11] = system: Pseudo. aeruginosa HH63; assay: MIC by standard agar inclusion method (Pseudo. aeruginosa HH63); conditions: Pseudomonas aeruginosa
[12] = system: Serratia marc. ATCC 13880; assay: MIC by standard agar inclusion method (Serratia marc. ATCC 13880); conditions: ATCC13880
[13] = system: Entero. aerogenes ATCC 13048; assay: MIC by standard agar inclusion method (Entero. aerogenes ATCC 13048); conditions: Klebsiella aerogenes, ATCC13048

Structure (SMILES)	MIC [1] [µg/mL]	MIC [2] [µg/mL]	MIC [3] [µg/mL]	MIC [4] [µg/mL]	MIC [5] [µg/mL]	MIC [6] [µg/mL]	MIC [7] [µg/mL]	MIC [8] [µg/mL]	MIC [9] [µg/mL]	MIC [10] [µg/mL]	MIC [11] [µg/mL]	MIC [12] [µg/mL]	MIC [13] [µg/mL]
CC(=O)OCC1=C(C(=O)O)N2C(=O)C(NC(=O)CSCC(F)(F)F)C2SC1 (centres unmarked) [Compound 1, 7-Trifluoroethylmercaptoacetamidocephalosporanic acid]	0.4 (≈ 0.934 µM)	0.4 (≈ 0.934 µM)	25 (≈ 58.4 µM)	25 (≈ 58.4 µM)	6.3 (≈ 14.7 µM)	50 (≈ 117 µM)	6.3 (≈ 14.7 µM)	3.1 (≈ 7.24 µM)	6.3 (≈ 14.7 µM)	6.3 (≈ 14.7 µM)	> 200	> 200	50 (≈ 117 µM)
Cc1nnc(SCC2=C(C(=O)O)N3C(=O)C(NC(=O)CSCC(F)(F)F)[C@H]3SC2)s1 (some centres unmarked) [Compound 2, 7-Trifluoroethylmercaptoacetamido-3-(5-methyl-1,3,4-thiadiazol-2-ylthiomethyl)-3-cephem-4-carboxylic acid]	0.2 (≈ 0.4 µM)	0.1 (≈ 0.2 µM)	25 (≈ 49.9 µM)	6.3 (≈ 12.6 µM)	6.3 (≈ 12.6 µM)	12.5 (≈ 25 µM)	6.3 (≈ 12.6 µM)	3.1 (≈ 6.19 µM)	6.3 (≈ 12.6 µM)	1.6 (≈ 3.2 µM)	> 200	> 200	25 (≈ 49.9 µM)
Cn1nnnc1SCC1=C(C(=O)O)N2C(=O)C(NC(=O)CSCC(F)(F)F)[C@H]2SC1 (some centres unmarked) [Compound 3, 7-Trifluoroethylmercaptoacetamido-3-(1-methyltetrazol-5-ylthiomethyl)-3-cephem-4-carboxylic acid]	0.2 (≈ 0.413 µM)	0.1 (≈ 0.206 µM)	12.5 (≈ 25.8 µM)	12.5 (≈ 25.8 µM)	1.6 (≈ 3.3 µM)	6.3 (≈ 13 µM)	3.1 (≈ 6.4 µM)	1.6 (≈ 3.3 µM)	0.8 (≈ 1.65 µM)	0.4 (≈ 0.826 µM)	> 200	> 200	6.3 (≈ 13 µM)
Cn1nnnc1SCC1=C(C(=O)O)N2C(=O)C(NC(=O)C[S+]([O-])CC(F)(F)F)[C@H]2SC1 (some centres unmarked) [Compound 4, 7-Trifluoroethylsulfinylacetamido-3-(1-methyltetrazol-5-ylthiomethyl)-3-cephem-4-carboxylic acid]	1.6 (≈ 3.2 µM)	0.8 (≈ 1.6 µM)	100 (≈ 200 µM)	100 (≈ 200 µM)	0.8 (≈ 1.6 µM)	3.1 (≈ 6.19 µM)	0.8 (≈ 1.6 µM)	0.4 (≈ 0.799 µM)	1.6 (≈ 3.2 µM)	0.4 (≈ 0.799 µM)	> 200	> 200	6.3 (≈ 12.6 µM)
Cn1nnnc1SCC1=C(C(=O)O)N2C(=O)C(NC(=O)CS(=O)(=O)CC(F)(F)F)[C@H]2SC1 (some centres unmarked) [Compound 5, 7-Trifluoroethylsulfonylacetamido-3-(1-methyltetrazol-5-ylthiomethyl)-3-cephem-4-carboxylic acid]	3.1 (≈ 6 µM)	3.1 (≈ 6 µM)	200 (≈ 387 µM)	> 200	6.3 (≈ 12.2 µM)	12.5 (≈ 24.2 µM)	3.1 (≈ 6 µM)	3.1 (≈ 6 µM)	6.3 (≈ 12.2 µM)	6.3 (≈ 12.2 µM)	> 200	> 200	50 (≈ 96.8 µM)
